Laboratory results: ChEMBL document CHEMBL6092162, “Identification of novel and potent triazoles targeting CYP51 for antifungal: Design, synthesis, and biological study” (Eur J Med Chem, 2024)
In brackets after ≈: the same amount, converted by molar mass. Activity calls are given as the source filed them. No cut-off for these calls is given here.

Assays:
Candida tropicalis = assay: Antifungal activity against Candida tropicalis GIM 2.183 assessed as inhibition of fungal growth by CLSI M27-A3 guidelines based method; format: functional
Cryptococcus neoformans = assay: Antifungal activity against Cryptococcus neoformans CGMCC 2.3161 assessed as inhibition of fungal growth by CLSI M27-A3 guidelines based method; format: functional
Candida albicans [1] = assay: Antifungal activity against Candida albicans SC5314 assessed as inhibition of fungal growth by CLSI M27-A3 guidelines based method; format: functional
Candida albicans [2] = assay: Antifungal activity against Candida albicans GIM 2.194 assessed as inhibition of fungal growth by CLSI M27-A3 guidelines based method; format: functional
Candida albicans [3] = assay: Antifungal activity against fluconazole-resistant Candida albicans CaR assessed as inhibition of fungal growth by CLSI M27-A3 guidelines based method; format: functional
Nakaseomyces glabratus = assay: Antifungal activity against Candida glabrata assessed as inhibition of fungal growth by CLSI M27-A3 guidelines based method; format: functional
Candida albicans [4] = assay: Antifungal activity against fluconazole-resistant Candida albicans clinical isolate 904 assessed as inhibition of fungal growth by CLSI M27-A3 guidelines based method; format: functional
Candida albicans [5] = assay: Antifungal activity against fluconazole and iodiconazole resistant Candida albicans clinical isolate 17# assessed as inhibition of fungal growth by CLSI M27-A3 guidelines based method; format: functional
Candida albicans [6] = assay: Antifungal activity against fluconazole-resistant Candida albicans clinical isolate 103 assessed as inhibition of fungal growth by CLSI M27-A3 guidelines based method; format: functional
Candida parapsilosis = assay: Antifungal activity against Candida parapsilosis GIM 2.190 assessed as inhibition of fungal growth by CLSI M27-A3 guidelines based method; format: functional; conditions: Lodderomyces parapsilosis
Candida albicans [7] = assay: Antifungal activity against fluconazole-resistant Candida albicans clinical isolate 901 assessed as inhibition of fungal growth by CLSI M27-A3 guidelines based method; format: functional
Candida albicans [8] = assay: Antifungal activity against fluconazole-resistant Candida albicans clinical isolate 311 assessed as inhibition of fungal growth by CLSI M27-A3 guidelines based method; format: functional
Candida albicans [9] = assay: Antifungal activity against fluconazole-resistant Candida albicans clinical isolate 632 assessed as inhibition of fungal growth by CLSI M27-A3 guidelines based method; format: functional
Candida albicans [10] = assay: Antifungal activity against fluconazole-resistant Candida albicans clinical isolate 100 assessed as inhibition of fungal growth by CLSI M27-A3 guidelines based method; format: functional
Pichia kudriavzevii = assay: Antifungal activity against Candida krusei GIM 2.1 assessed as inhibition of fungal growth by CLSI M27-A3 guidelines based method; format: functional
Candida albicans [11] = assay: Fungicidal activity against Candida albicans SC5314 incubated for 48 hrs by SDA plate based method; format: functional
Candida albicans [12] = assay: Antibiofilm activity against fluconazole-resistant Candida albicans CPCC400616 assessed as inhibition of metabolic activity of biofilm measured after 6 hrs by XTT reduction assay; format: functional
[13] = Cytotoxicity against human OVCAR-3 cells assessed as inhibition of cell growth incubated for 72 hrs by MTT assay; format: toxicity, cell-based
Candida albicans [14] = assay: Selectivity ratio of MFC for fungicidal activity against Candida albicans SC5314 to MIC80 for antifungal activity against Candida albicans SC5314; format: functional
[15] = Cytotoxicity against HEK293T cells assessed as inhibition of cell growth incubated for 72 hrs by MTT assay; format: toxicity, cell-based, HEK-293T; conditions: human
Candida albicans [16] = assay: Antibiofilm activity against fluconazole-resistant Candida albicans CPCC400616 assessed as inhibition of metabolic activity of biofilm measured after 24 hrs by XTT reduction assay; format: functional
Candida albicans [17] = assay: Antibiofilm activity against fluconazole-resistant Candida albicans CPCC400616 assessed as inhibition of metabolic activity of biofilm measured after 48 hrs by XTT reduction assay; format: functional
Candida albicans [18] = assay: Fungicidal activity against fluconazole and iodiconazole resistant Candida albicans clinical isolate 17# incubated for 48 hrs by SDA plate based method; format: functional
[19] = Cytotoxicity against human NCI-H460 cells assessed as inhibition of cell growth incubated for 72 hrs by MTT assay; format: toxicity, cell-based
Candida albicans [20] = assay: Antibiofilm activity against Candida albicans CPCC400616 assessed as inhibition of morphological transformation by measuring disappearance of mycelium at 2 microg/ml incubated for 4 hrs by microscopic photograph analysis; format: functional, organism-based; conditions: dose 2.0 µg/ml
Candida albicans [21] = assay: Selectivity ratio of MFC for fungicidal activity against fluconazole and iodiconazole resistant Candida albicans clinical isolate 17# to MIC80 for antifungal activity against fluconazole and iodiconazole resistant Candida albicans clinical isolate 17#; format: functional
[22] = Cytotoxicity against HUVEC cells assessed as inhibition of cell growth incubated for 72 hrs by MTT assay; format: toxicity, cell-based; conditions: human

Compound: CN(Cc1ccc(N2CCN(Cc3ccc(C(C)(C)C)cc3)CC2)cc1)CC(O)(Cn1cncn1)c1ccc(F)cc1F (configuration not stated)
- MIC80 (Candida tropicalis): 0.013 µg/mL (≈ 0.0221 µM)
- MIC80 (Cryptococcus neoformans): 0.1 µg/mL (≈ 0.17 µM)
- MIC80 (Candida albicans [1]): 0.013 µg/mL (≈ 0.0221 µM)
- MIC80 (Candida albicans [2]): 0.006 µg/mL (≈ 0.0102 µM)
- MIC80 (Candida albicans [3]): 0.063 µg/mL (≈ 0.107 µM)
- MIC80 (Nakaseomyces glabratus): 0.1 µg/mL (≈ 0.17 µM)
- MIC80 (Candida albicans [4]): 32 µg/mL (≈ 54.4 µM)
- MIC80 (Candida albicans [5]): 0.125 µg/mL (≈ 0.212 µM)
- MIC80 (Candida albicans [6]): 8 µg/mL (≈ 13.6 µM)
- MIC80 (Candida parapsilosis): 0.006 µg/mL (≈ 0.0102 µM)
- MIC80 (Candida albicans [7]): > 64 µg/mL
- MIC80 (Candida albicans [8]): 8 µg/mL (≈ 13.6 µM)
- MIC80 (Candida albicans [9]): 16 µg/mL (≈ 27.2 µM)
- MIC80 (Candida albicans [10]): 8 µg/mL (≈ 13.6 µM)

Compound: CN(Cc1ccc(N2CCN(Cc3ccc(OC(F)(F)F)cc3)CC2)cc1)CC(O)(Cn1cncn1)c1ccc(F)cc1F (configuration not stated)
- MIC80 (Candida tropicalis): 0.006 µg/mL (≈ 0.00973 µM)
- MIC80 (Cryptococcus neoformans): 0.1 µg/mL (≈ 0.162 µM)
- MIC80 (Candida albicans [1]): 0.013 µg/mL (≈ 0.0211 µM)
- MIC80 (Candida albicans [2]): 0.013 µg/mL (≈ 0.0211 µM)
- MIC80 (Candida albicans [3]): 0.063 µg/mL (≈ 0.102 µM)
- MIC80 (Nakaseomyces glabratus): 0.1 µg/mL (≈ 0.162 µM)
- MIC80 (Candida albicans [4]): 32 µg/mL (≈ 51.9 µM)
- MIC80 (Candida albicans [5]): 0.125 µg/mL (≈ 0.203 µM)
- MIC80 (Candida albicans [6]): 32 µg/mL (≈ 51.9 µM)
- MIC80 (Candida parapsilosis): 0.025 µg/mL (≈ 0.0405 µM)
- MIC80 (Pichia kudriavzevii): 0.1 µg/mL (≈ 0.162 µM)
- MIC80 (Candida albicans [7]): > 64 µg/mL
- MIC80 (Candida albicans [8]): > 64 µg/mL
- MIC80 (Candida albicans [9]): 32 µg/mL (≈ 51.9 µM)
- MIC80 (Candida albicans [10]): 8 µg/mL (≈ 13 µM)

Compound: CN(Cc1ccc(I)cc1)CC(O)(Cn1cncn1)c1ccc(F)cc1F (configuration not stated)
- MIC80 (Candida tropicalis): 0.013 µg/mL (≈ 0.0268 µM)
- MIC80 (Cryptococcus neoformans): 0.1 µg/mL (≈ 0.206 µM)
- MFC (Candida albicans [11]): 32 µg/mL (≈ 66.1 µM)
- MIC80 (Candida albicans [1]): 0.013 µg/mL (≈ 0.0268 µM)
- MIC80 (Candida albicans [2]): 0.025 µg/mL (≈ 0.0516 µM)
- MIC80 (Candida albicans [3]): 2 µg/mL (≈ 4.13 µM)
- MIC50 (Candida albicans [12]): 8 µg/mL (≈ 16.5 µM)
- MIC80 (Nakaseomyces glabratus): 0.2 µg/mL (≈ 0.413 µM)
- MIC80 (Candida albicans [4]): 8 µg/mL (≈ 16.5 µM)
- MIC80 (Candida albicans [5]): 0.25 µg/mL (≈ 0.516 µM)
- MIC80 (Candida albicans [6]): 32 µg/mL (≈ 66.1 µM)
- MIC80 (Candida parapsilosis): 0.025 µg/mL (≈ 0.0516 µM)
- IC50 at 72 h [13]: > 10 µM
- Selectivity ratio (Candida albicans [14]): >256
- IC50 at 72 h [15]: > 10 µM
- MIC50 (Candida albicans [16]): 16 µg/mL (≈ 33 µM)
- MIC80 (Pichia kudriavzevii): 0.2 µg/mL (≈ 0.413 µM)
- MIC80 (Candida albicans [7]): > 64 µg/mL
- MIC50 (Candida albicans [17]): > 32 µg/mL
- MIC80 (Candida albicans [8]): > 64 µg/mL
- MIC80 (Candida albicans [9]): 16 µg/mL (≈ 33 µM)
- MFC (Candida albicans [18]): 32 µg/mL (≈ 66.1 µM)
- IC50 at 72 h [19]: > 10 µM
- Activity (Candida albicans [20]): Active
- MIC80 (Candida albicans [10]): 2 µg/mL (≈ 4.13 µM)
- Selectivity ratio (Candida albicans [21]): 128
- IC50 at 72 h [22]: > 10 µM

Compound: CN(Cc1ccc(N2CCN(Cc3ccc(Cl)cc3Br)CC2)cc1)CC(O)(Cn1cncn1)c1ccc(F)cc1F (configuration not stated)
- MIC80 (Candida tropicalis): 0.006 µg/mL (≈ 0.00929 µM)
- MIC80 (Candida albicans [1]): 0.006 µg/mL (≈ 0.00929 µM)
- MIC80 (Candida albicans [2]): 0.006 µg/mL (≈ 0.00929 µM)
- MIC80 (Candida albicans [3]): 0.125 µg/mL (≈ 0.194 µM)
- MIC80 (Candida albicans [4]): 32 µg/mL (≈ 49.5 µM)
- MIC80 (Candida albicans [5]): 1 µg/mL (≈ 1.55 µM)
- MIC80 (Candida albicans [6]): > 64 µg/mL
- MIC80 (Candida parapsilosis): 0.006 µg/mL (≈ 0.00929 µM)
- MIC80 (Candida albicans [7]): > 64 µg/mL
- MIC80 (Candida albicans [8]): > 64 µg/mL
- MIC80 (Candida albicans [9]): 32 µg/mL (≈ 49.5 µM)
- MIC80 (Candida albicans [10]): 8 µg/mL (≈ 12.4 µM)

Compound: CN(Cc1ccc(N2CCN(Cc3cc(F)ccc3Br)CC2)cc1)CC(O)(Cn1cncn1)c1ccc(F)cc1F (configuration not stated)
- MIC80 (Candida tropicalis): 0.006 µg/mL (≈ 0.00953 µM)
- MIC80 (Candida albicans [1]): 0.013 µg/mL (≈ 0.0207 µM)
- MIC80 (Candida albicans [2]): 0.025 µg/mL (≈ 0.0397 µM)
- MIC80 (Candida albicans [3]): 0.063 µg/mL (≈ 0.1 µM)
- MIC80 (Nakaseomyces glabratus): 0.1 µg/mL (≈ 0.159 µM)
- MIC80 (Candida albicans [4]): 8 µg/mL (≈ 12.7 µM)
- MIC80 (Candida albicans [5]): 0.25 µg/mL (≈ 0.397 µM)
- MIC80 (Candida albicans [6]): 8 µg/mL (≈ 12.7 µM)
- MIC80 (Candida parapsilosis): 0.006 µg/mL (≈ 0.00953 µM)
- MIC80 (Pichia kudriavzevii): 0.1 µg/mL (≈ 0.159 µM)
- MIC80 (Candida albicans [7]): > 64 µg/mL
- MIC80 (Candida albicans [8]): 32 µg/mL (≈ 50.8 µM)
- MIC80 (Candida albicans [9]): 16 µg/mL (≈ 25.4 µM)
- MIC80 (Candida albicans [10]): 2 µg/mL (≈ 3.18 µM)
